# Measurements published in article PMC4901301 (Scientific Reports, 2016).
# Like-named read-outs stand apart in the source and are kept apart here.
# Tests used:
# Mtb gyrase = Mtb gyrase (Mycobacterium tuberculosis, UniProt P9WG45); test: Mtb gyrase supercoiling assay; format: biochemical
# Procedure: Mtb gyrase supercoiling assays were carried out as described previously.
# Mtb ThyX = Mtb ThyX (Mycobacterium tuberculosis, UniProt P9WG57); test: Mtb ThyX tritium release assay; format: biochemical; conditions: for % of ThyX inhibition at 100 µM: actual measured data; for Ki: read-out: Ki against Mtb ThyX
# Sequence of Mtb ThyX (P9WG57 whole entry): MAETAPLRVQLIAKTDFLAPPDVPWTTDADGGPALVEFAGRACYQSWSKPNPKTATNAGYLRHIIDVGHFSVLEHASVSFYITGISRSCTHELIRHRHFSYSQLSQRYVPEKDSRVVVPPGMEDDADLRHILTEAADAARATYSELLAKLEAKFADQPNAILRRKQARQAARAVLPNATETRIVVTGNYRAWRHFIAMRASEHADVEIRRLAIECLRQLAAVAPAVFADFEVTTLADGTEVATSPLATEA
# Mtb TH 12526 = test: Resazurin (Alamar Blue) drug susceptibility testing, TH 12526; format: cell-based, Mycobacterium tuberculosis
# Mtb H37Rv [1] = test: Resazurin (Alamar Blue) drug susceptibility testing, H37Rv; format: cell-based, Mycobacterium tuberculosis
# Mtb H37Rv [2] = test: Broth microdilution susceptibility of Mtb H37Rv; format: cell-based, Mycobacterium tuberculosis; conditions: replicating Mtb H37Rv, read-out: MIC90 (µM) against H37Rv
# Mtb = tested on: Mtb; design: method as in earlier work; conditions: cited from earlier work
# [3] = menadione analogs, 7H9 media with 1% ethanol as a co-solvent, read-out: MIC (H37Rv)
# Sequence of Mtb gyrase (P9WG47 whole entry): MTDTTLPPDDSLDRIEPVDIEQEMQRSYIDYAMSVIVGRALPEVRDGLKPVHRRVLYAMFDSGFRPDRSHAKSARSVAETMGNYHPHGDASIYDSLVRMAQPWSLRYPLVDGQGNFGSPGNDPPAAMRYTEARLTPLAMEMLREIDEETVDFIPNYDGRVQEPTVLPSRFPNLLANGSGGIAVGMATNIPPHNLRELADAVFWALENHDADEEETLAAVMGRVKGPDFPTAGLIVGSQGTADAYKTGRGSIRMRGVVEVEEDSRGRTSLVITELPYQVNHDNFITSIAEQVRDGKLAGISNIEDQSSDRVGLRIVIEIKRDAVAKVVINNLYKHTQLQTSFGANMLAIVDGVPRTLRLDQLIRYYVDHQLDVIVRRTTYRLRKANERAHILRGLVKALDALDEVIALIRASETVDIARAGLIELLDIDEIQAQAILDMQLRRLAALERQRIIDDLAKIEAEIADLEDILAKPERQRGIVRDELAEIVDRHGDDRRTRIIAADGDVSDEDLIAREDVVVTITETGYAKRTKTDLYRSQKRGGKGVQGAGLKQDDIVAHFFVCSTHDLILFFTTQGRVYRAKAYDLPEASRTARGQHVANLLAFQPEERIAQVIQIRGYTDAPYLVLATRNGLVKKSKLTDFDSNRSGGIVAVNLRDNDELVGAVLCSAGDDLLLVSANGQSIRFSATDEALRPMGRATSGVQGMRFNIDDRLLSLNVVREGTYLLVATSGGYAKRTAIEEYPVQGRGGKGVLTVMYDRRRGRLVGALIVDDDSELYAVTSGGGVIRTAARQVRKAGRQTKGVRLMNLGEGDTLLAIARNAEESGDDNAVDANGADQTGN
# Sequence of Mtb gyrase (P9WG45 whole entry): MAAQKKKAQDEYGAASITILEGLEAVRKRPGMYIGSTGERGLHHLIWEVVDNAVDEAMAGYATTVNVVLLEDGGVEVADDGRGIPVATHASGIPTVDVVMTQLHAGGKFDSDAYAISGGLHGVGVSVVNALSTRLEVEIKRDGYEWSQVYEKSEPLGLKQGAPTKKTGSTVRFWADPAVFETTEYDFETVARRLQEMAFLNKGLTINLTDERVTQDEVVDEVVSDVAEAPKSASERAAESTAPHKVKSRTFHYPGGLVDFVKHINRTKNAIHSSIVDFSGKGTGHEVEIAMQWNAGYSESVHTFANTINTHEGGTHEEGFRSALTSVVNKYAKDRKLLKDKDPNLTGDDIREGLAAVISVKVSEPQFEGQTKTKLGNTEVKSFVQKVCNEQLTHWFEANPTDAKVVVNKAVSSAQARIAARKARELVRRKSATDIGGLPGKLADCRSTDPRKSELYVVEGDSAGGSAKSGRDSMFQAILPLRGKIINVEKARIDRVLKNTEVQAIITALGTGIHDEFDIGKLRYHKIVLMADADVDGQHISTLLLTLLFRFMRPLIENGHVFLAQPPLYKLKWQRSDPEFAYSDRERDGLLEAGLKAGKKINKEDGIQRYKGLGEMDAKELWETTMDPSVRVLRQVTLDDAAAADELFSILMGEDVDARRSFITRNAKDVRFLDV
structure (smiles),measurement,setting,value
CCOCCOC(=O)COc1ccc2c(-c3ccccc3)cc(=O)oc2c1 [2-ethoxyethyl [(2-oxo-4-phenyl-2H-chromen-7-yl)oxy]acetate],Activity against gyrase at 100 uM,Mtb gyrase,no activity
"Cc1cc(O)c2c(c1)C(=O)C=CC2=O [7-methyljuglone, reference compound]",Activity against Mtb gyrase (in words),Mtb gyrase,active
same,IC50,Mtb gyrase,30 µM
same,Activity against Mtb ThyX (in words),Mtb ThyX,active
same,IC50,Mtb ThyX,35 µM
O=C1C(Br)=CC(=O)c2c(O)cccc21 [Compound 2E04],Activity against Mtb gyrase (in words),Mtb gyrase,inactive
same,IC50,Mtb gyrase,> 50 µM
same,Activity against Mtb ThyX (in words),Mtb ThyX,inhibit
same,IC50,Mtb ThyX,5 µM
O=C1C(O)=C(Cc2ccc(-c3ccc(Cl)cc3)cc2)C(=O)c2ccccc21 [Compound 007B],MIC,"Mtb TH 12526; TH 12526, read-out: MIC",41.7 µM
same,MIC,"Mtb H37Rv [1]; H37Rv, read-out: MIC",20.8 µM
same,% of ThyX inhibition at 100 µM,Mtb ThyX,21%
O=C1C(O)=C(Cc2ccc(OC(F)(F)F)cc2)C(=O)c2ccccc21 [Compound 007C],MIC,"Mtb TH 12526; TH 12526, read-out: MIC",44.9 µM
same,MIC,"Mtb H37Rv [1]; H37Rv, read-out: MIC",89.7 µM
same,% of ThyX inhibition at 100 µM,Mtb ThyX,78%
CC(C)Oc1ccc(CC2=C(O)C(=O)c3ccccc3C2=O)cc1 [Compound 007D],MIC,"Mtb TH 12526; TH 12526, read-out: MIC",96.9 µM
same,MIC,Mtb H37Rv [1]; read-out: MIC,96.9 µM
same,% of ThyX inhibition at 100 µM,Mtb ThyX,71%
O=C1C(O)=C(Cc2ccc(C(F)(F)F)cc2)C(=O)c2ccccc21 [Compound 007F],MIC,"Mtb TH 12526; TH 12526, read-out: MIC",47.0 µM
same,MIC,Mtb H37Rv [1]; read-out: MIC,94.1 µM
same,% of ThyX inhibition at 100 µM,Mtb ThyX,74%
O=C1C(O)=C(Cc2ccc(Oc3ccccc3)cc2)C(=O)c2ccccc21 [Compound 007G],MIC,"Mtb TH 12526; TH 12526, read-out: MIC",87.8 µM
same,MIC,Mtb H37Rv [1]; read-out: MIC,175.5 µM
same,% of ThyX inhibition at 100 µM,Mtb ThyX,89%
O=C1C(O)=C(Cc2ccc(Cl)cc2)C(=O)c2ccccc21 [Compound 010A],MIC,"Mtb TH 12526; TH 12526, read-out: MIC",52.3 µM
same,MIC,Mtb H37Rv [1]; read-out: MIC,52.3 µM
same,% of ThyX inhibition at 100 µM,Mtb ThyX,64%
O=C1C(O)=C(Cc2cc(F)cc(F)c2)C(=O)c2ccccc21 [Compound 010B],MIC,"Mtb TH 12526; TH 12526, read-out: MIC",104.1 µM
same,MIC,Mtb H37Rv [1]; read-out: MIC,104.1 µM
same,% of ThyX inhibition at 100 µM,Mtb ThyX,68%
O=C1C(O)=C(Cc2ccco2)C(=O)c2ccccc21 [Compound 010C],MIC,"Mtb TH 12526; TH 12526, read-out: MIC",176.5 µM
same,MIC,Mtb H37Rv [1]; read-out: MIC,176.5 µM
same,% of ThyX inhibition at 100 µM,Mtb ThyX,60%
O=C1C(O)=C(Cc2cccs2)C(=O)c2ccccc21 [Compound 010D],MIC,"Mtb TH 12526; TH 12526, read-out: MIC",231.2 µM
same,MIC,Mtb H37Rv [1]; read-out: MIC,231.2 µM
same,% of ThyX inhibition at 100 µM,Mtb ThyX,42%
O=C1C(O)=C(Cc2ccc(F)c(C(F)(F)F)c2)C(=O)c2ccccc21 [Compound 010E],MIC,"Mtb TH 12526; TH 12526, read-out: MIC",22.3 µM
same,MIC,Mtb H37Rv [1]; read-out: MIC,22.3 µM
same,% of ThyX inhibition at 100 µM,Mtb ThyX,32%
O=C1C(O)=C(Cc2ccc(F)c(Cl)c2)C(=O)c2ccccc21 [Compound 010F],MIC,"Mtb TH 12526; TH 12526, read-out: MIC",98.7 µM
same,MIC,Mtb H37Rv [1]; read-out: MIC,197.3 µM
same,% of ThyX inhibition at 100 µM,Mtb ThyX,73%
COc1cc(CC2=C(O)C(=O)c3ccccc3C2=O)ccc1O [Compound 010H],MIC,"Mtb TH 12526; TH 12526, read-out: MIC",201.4 µM
same,MIC,Mtb H37Rv [1]; read-out: MIC,201.4 µM
same,% of ThyX inhibition at 100 µM,Mtb ThyX,41%
CCCCC1=C(O)C(=O)c2ccccc2C1=O [Compound 010I],MIC,"Mtb TH 12526; TH 12526, read-out: MIC",67.8 µM
same,MIC,Mtb H37Rv [1]; read-out: MIC,135.7 µM
same,% of ThyX inhibition at 100 µM,Mtb ThyX,58%
COc1ccc(CC2=C(O)C(=O)c3ccccc3C2=O)cc1OC [Compound 010K],MIC,"Mtb TH 12526; TH 12526, read-out: MIC",48.2 µM
same,MIC,Mtb H37Rv [1]; read-out: MIC,192.7 µM
same,% of ThyX inhibition at 100 µM,Mtb ThyX,42%
"CCOC(=O)C1=C(c2ccc(C)cc2)C(=O)c2ccccc2C1=O [Compound B6, ethyl 3-(4-methylphenyl)-1,4-dioxonaphtalene-2-carboxylate]",MIC90,Mtb H37Rv [2]; Mycobacterium tuberculosis,62.5 µM
same,Ki,Mtb ThyX; from dose response curves versus ThyX,4.5 µM
COc1ccc(CC2=C(O)C(=O)c3ccccc3C2=O)cc1 [Compound C8-C1],Activity against Mtb gyrase (in words),Mtb gyrase,inactive
same,IC50 gyrase,Mtb gyrase,No inhibition
same,Activity against Mtb ThyX (in words),Mtb ThyX,inhibit
same,IC50,Mtb ThyX,4.5 µM
O=C1C=C(Cc2ccc(F)cc2)C(=O)c2ccccc21 [Compound D4],MIC90,Mtb H37Rv [2],31.2 µM
COc1ccc(CC2=CC(=O)c3ccccc3C2=O)cc1 [Compound D5],MIC90,Mtb H37Rv [2],62.5 µM
"CS(=O)(=O)N1CCN(C2=C(Cl)C(=O)c3ccccc3C2=O)CC1 [Compound E1, 2-chloro-3-(4-methanesulfonylpiperazin-1-yl)-1,4-dihydronaphthalene-1,4-dione]",MIC90,Mtb H37Rv [2]; Mycobacterium tuberculosis,62.5 µM
CC(=O)N(C1=C(Cl)C(=O)c2ccccc2C1=O)c1cccc(F)c1 [Compound E10],MIC90,Mtb H37Rv [2],31.2 µM
O=C1C(Cl)=C(N2CCN(C(=O)c3ccc(F)cc3)CC2)C(=O)c2ccccc21 [Compound F1],MIC90,Mtb H37Rv [2],31.2 µM
CCS(=O)(=O)N1CCN(C2=C(Cl)C(=O)c3ccccc3C2=O)CC1 [Compound F2],MIC90,Mtb H37Rv [2],31.2 µM
"Cc1cc(O)c2c(c1)C(=O)C(c1c(C)cc3c(c1O)C(=O)C=CC3=O)=CC2=O [Diospyrin, reference compound]",Activity against Mtb gyrase (in words),Mtb gyrase,inhibits
same,IC50,Mtb gyrase,15 µM
same,IC50 ThyX,Mtb ThyX,No inhibition
"NNC(=O)c1ccncc1 [INH, isoniazid, reference compound]",MIC,"Mtb TH 12526; Mycobacterium tuberculosis, TH12526, TH 12526, read-out: MIC",< 0.91 µM
same,MIC,"Mtb H37Rv [1]; Mycobacterium tuberculosis, H37RV, read-out: MIC",< 0.91 µM
same,MIC,Mtb,0.25 µg/mL
"COC1=C(OC)C(=O)C(CCCCCCCCCCO)=C(C)C1=O [Idebenone, idebenone, reference compound]",MIC90,Mtb H37Rv [2]; Mycobacterium tuberculosis,125 µM
same,MIC90,Mtb H37Rv [2],125 µM
same,Ki,"Mtb ThyX; uncompetitive with respect to dUMP, converted from measured IC50",3.3 µM
same,Mode of inhibition of Mtb ThyX,Mtb ThyX; with respect to dUMP,uncompetitive
"Cc1cc2c(c(O)c1-c1c(C)cc(O)c3c1C(=O)C=CC3=O)C(=O)C=CC2=O [Isodiospyrin, reference compound]",IC50,Mtb gyrase,100 µM
"CC(C)=CCC/C(C)=C/CC/C(C)=C/CC/C(C)=C/CC/C(C)=C/CC/C(C)=C/CC/C(C)=C/CC/C(C)=C/CC/C(C)=C/CC1=C(C)C(=O)c2ccccc2C1=O [MK-9, reference compound]",MIC,Mtb H37Rv [1]; [3],> 6.4 µM
"CC1(S(=O)(=O)[O-])CC(=O)c2ccccc2C1=O.[Na+] (stereo not shown) [Menadione Bisulfate, reference compound]",MIC,Mtb H37Rv [1]; [3],311.3 µM
"CC1=CC(=O)c2ccccc2C1=O [Menadione, reference compound]",MIC,"Mtb H37Rv [1]; Mycobacterium tuberculosis, H37RV, menadione analogs, 7H9 media with 1% ethanol as a co-solvent, read-out: MIC (H37Rv)",98.8 µM
same,Activity against Mtb gyrase (in words),Mtb gyrase,inactive
"Cc1cc(O)c2c(c1)C(=O)C=C(c1c(C)cc(O)c3c1C(=O)C=CC3=O)C2=O [Neodiospyrin, reference compound]",IC50,Mtb gyrase,50 µM
same,IC50,Mtb ThyX,20 µM
"CO[C@H]1/C=C/O[C@@]2(C)Oc3c(C)c(O)c4c(O)c(c(/C=N/N5CCN(C)CC5)c(O)c4c3C2=O)NC(=O)/C(C)=C\C=C\[C@H](C)[C@H](O)[C@@H](C)[C@@H](O)[C@@H](C)[C@H](OC(C)=O)[C@@H]1C [RMP, rifampicin, reference compound]",MIC,"Mtb TH 12526; Mycobacterium tuberculosis, TH12526",< 0.3 µM
same,MIC,Mtb,0.5 µg/mL
CCCCc1cc(=O)oc2cc(OCC(=O)OCc3ccccc3)c(Cl)cc12 [benzyl [(4-butyl-6-chloro-2-oxo-2H-chromen-7-yl)oxy]acetate],Activity against gyrase at 100 uM,Mtb gyrase,no activity
CCOC(=O)COc1cc2oc(=O)cc(CC)c2cc1Cl [ethyl [(6-chloro-4-ethyl-2-oxo-2H-chromen-7-yl)oxy]acetate],Activity against gyrase at 100 uM,Mtb gyrase,no activity
COC(=O)COc1cc2oc(=O)cc(-c3ccccc3)c2cc1Cl [methyl [(6-chloro-2-oxo-4-phenyl-2H-chromen-7-yl)oxy]acetate],Activity against gyrase at 100 uM,Mtb gyrase,no activity
CCCc1cc(=O)oc2cc(OCC(=O)OC)c(Cl)cc12 [methyl [(6-chloro-2-oxo-4-propyl-2H-chromen-7-yl)oxy]acetate],Activity against gyrase at 100 uM,Mtb gyrase,no activity
CCc1cc2c(=O)c(-c3ccc(OC)cc3)coc2cc1OCC(=O)OC [methyl {[6-ethyl-3-(4-methoxyphenyl)-4-oxo-4H-chromen-7-yl]oxy}acetate],Activity against gyrase at 100 uM,Mtb gyrase,no activity
C=CCOC(=O)COc1cc2oc(=O)c(Cc3ccccc3)c(C)c2cc1Cl [prop-2-en-1-yl 2-[(3-benzyl-6-chloro-4-methyl-2-oxo-2H-chromen-7-yl)oxy]acetate],Activity against gyrase at 100 uM,Mtb gyrase,no activity
